A short description of the data set: physchem. An outline of the steps:
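Solubility at pH 7.4 determined by stepwise addition of 200 mM phosphate buffer in 100 μL increments to 3 mg peptide, mixing briefly each time, until no insoluble material remained, then measured by liquid chromatography.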

Starred links: 1 amine or outer side, 2 acyl side, 3 side chain; linkers in the order of their positions; H or OH if unused. Non-standard residues stand in square brackets, D forms with d. Residues, ends and D or L forms follow the SMILES beside them. Groups on a side chain read outwards from the residue. *: point of attachment. C18 diacid = O=C(O)CCCCCCCCCCCCCCCCC(=O)*; C17 diacid = O=C(O)CCCCCCCCCCCCCCCC(=O)*; γGlu = O=C(O)[C@H](CCC(=O)[*:2])N[*:1]; NMeY = CN[C@@H](Cc1ccc(O)cc1)C(=O)O; AEEA = NCCOCCOCC(=O)O; Aib = CC(C)(N)C(=O)O Bounds are passed on as bounds.

As for `CC[C@H](C)[C@H](NC(=O)[C@H](CO)NC(=O)[C@H](Cc1ccc(O)cc1)NC(=O)[C@H](CC(=O)O)NC(=O)[C@H](CO)NC(=O)[C@@H](NC(=O)[C@H](Cc1ccccc1)NC(=O)[C@@H](NC(=O)CNC(=O)[C@H](CCC(=O)O)NC(=O)C(C)(C)NC(=O)[C@@H](N)Cc1ccc(O)cc1)[C@@H](C)O)[C@@H](C)CC)C(=O)N[C@@H](C)C(=O)NC(C)(C)C(=O)N[C@@H](CC(=O)O)C(=O)N[C@@H](CCCCN)C(=O)N[C@H](C(=O)N[C@@H](CCCCNC(=O)COCCOCCNC(=O)COCCOCCNC(=O)CC[C@H](NC(=O)CCCCCCCCCCCCCCCCC(=O)O)C(=O)O)C(=O)N[C@@H](CCC(N)=O)C(=O)N[C@@H](C)C(=O)N[C@@H](CC(=O)O)C(=O)N[C@@H](Cc1ccccc1)C(=O)N[C@H](C(=O)N[C@@H](CCC(=O)O)C(=O)N[C@@H](Cc1c[nH]c2ccccc12)C(=O)N[C@@H](CC(C)C)C(=O)N[C@@H](CC(C)C)C(=O)N[C@@H](C)C(=O)N[C@@H](CCC(N)=O)C(=O)N[C@@H](CCCNC(=N)N)C(=O)NCC(=O)O)C(C)C)[C@@H](C)CC` [Compound 166] (H-Y[Aib]EGTFISDYSIA[Aib]DKIK([AEEA-AEEA-γGlu-C18 diacid])QADFVEWLLAQRG-OH), the solubility is, setting by setting: (pH 7.4) at least 15 mg/mL; (pH 7.4, aqueous buffer) at least 30 mg/mL.
As for `CC[C@H](C)[C@H](NC(=O)[C@H](CO)NC(=O)[C@H](Cc1ccc(O)cc1)NC(=O)[C@H](CC(=O)O)NC(=O)[C@H](CO)NC(=O)[C@@H](NC(=O)[C@H](Cc1ccccc1)NC(=O)[C@@H](NC(=O)CNC(=O)[C@H](CCC(=O)O)NC(=O)C(C)(C)NC(=O)[C@H](Cc1ccc(O)cc1)NC)[C@@H](C)O)[C@@H](C)CC)C(=O)N[C@@H](C)C(=O)N[C@@H](CC(C)C)C(=O)N[C@@H](CC(=O)O)C(=O)N[C@@H](CCCNC(=N)N)C(=O)NC(C)(C)C(=O)N[C@@H](CCCCNC(=O)COCCOCCNC(=O)COCCOCCNC(=O)CC[C@H](NC(=O)CC[C@H](NC(=O)CCCCCCCCCCCCCCCC(=O)O)C(=O)O)C(=O)O)C(=O)N[C@@H](CCC(N)=O)C(=O)NC(C)(C)C(=O)N[C@@H](CC(N)=O)C(=O)N[C@@H](Cc1ccccc1)C(=O)N[C@H](C(=O)N[C@@H](CC(N)=O)C(=O)N[C@@H](Cc1c[nH]c2ccccc12)C(=O)N[C@@H](CC(C)C)C(=O)N[C@@H](CC(C)C)C(=O)N[C@@H](C)C(=O)N[C@@H](CCC(N)=O)C(=O)N[C@@H](CCCNC(=N)N)C(N)=O)C(C)C` [Compound 256] (H-[NMeY][Aib]EGTFISDYSIALDR[Aib]K([AEEA-AEEA-γGlu-γGlu-C17 diacid])Q[Aib]NFVNWLLAQR-NH2), for the setting “pH 7.4, aqueous buffer”, the solubility is at least 6 mg/mL.
For `CC[C@H](C)[C@H](NC(=O)[C@H](CO)NC(=O)[C@H](Cc1ccc(O)cc1)NC(=O)[C@H](CC(=O)O)NC(=O)[C@H](CO)NC(=O)[C@@H](NC(=O)[C@H](Cc1ccccc1)NC(=O)[C@@H](NC(=O)CNC(=O)[C@H](CCC(=O)O)NC(=O)C(C)(C)NC(=O)[C@H](Cc1ccc(O)cc1)NC)[C@@H](C)O)[C@@H](C)CC)C(=O)N[C@@H](C)C(=O)N[C@@H](CCCCNC(=O)CNC(=O)CNC(=O)CNC(=O)CNC(=O)CNC(=O)CCCCCCCCCCCCCCCCC(=O)O)C(=O)N[C@@H](CC(=O)O)C(=O)N[C@@H](CCCCN)C(=O)NC(C)(C)C(=O)N[C@@H](Cc1c[nH]cn1)C(=O)N[C@@H](CCC(N)=O)C(=O)NC(C)(C)C(=O)N[C@@H](CC(N)=O)C(=O)N[C@@H](Cc1ccccc1)C(=O)N[C@H](C(=O)N[C@@H](CC(N)=O)C(=O)N[C@@H](Cc1c[nH]c2ccccc12)C(=O)N[C@@H](CC(C)C)C(=O)N[C@@H](CC(C)C)C(=O)N[C@@H](C)C(=O)N[C@@H](CCC(N)=O)C(=O)N[C@@H](CCCCN)C(=O)NCC(=O)N[C@@H](CCCCN)C(=O)N[C@@H](CCCCN)C(=O)N[C@@H](CC(N)=O)C(=O)N[C@@H](CC(N)=O)C(=O)N[C@@H](Cc1c[nH]c2ccccc12)C(=O)N[C@@H](CCCCN)C(=O)N[C@@H](Cc1c[nH]cn1)C(=O)N[C@@H](CC(N)=O)C(N)=O)C(C)C` [Compound 281], the solubility (pH 7.4, aqueous buffer) was under 15 mg/mL.

Broadly, the solubility is the concentration that dissolves in the medium under given conditions. Higher therefore signals a readily soluble substance.

For the origin of these results see US20230143604A1, “QW DOSING OF GIP RECEPTOR AGONIST PEPTIDE COMPOUNDS AND USES THEREOF” (TAKEDA PHARMACEUTICAL COMPANY LIMITED, priority 2020, published 2023).
